Where two headings read alike, the source gives them in different places.
Key:
P. falciparum 3D7 [1] = assay: DAPI stain fluorescent high content imaging assay, P. falciparum 3D7 (confirmatory screen, Avery); conditions: Plasmodium falciparum; for EC50: 3D7, read-out: EC50_nM; for inhibition of growth at 5 µM: 3D7, read-out: percent_inh @ 5 uM; for inhibition of growth at 2 µM: 3D7, read-out: percent_inh @ 2 uM
P. falciparum 3D7 [2] = test system: P. falciparum 3D7; design: method as in ChEMBL-NTD; conditions: ref ChEMBL-NTD, cited from earlier work
[3] = original screening data, source (GSK, GNF, StJude), several values separated by ';' in order of sources
[4] = values follow the order of the source (GNF; GSK; StJude)

| SMILES | EC50 (P. falciparum 3D7 [1]) | inhibition of growth at 5 µM (P. falciparum 3D7 [1]) | other results |
| --- | --- | --- | --- |
| CCCc1cc(O)c2c3c(c(=O)oc2c1)CN(C)CC3 [MMV665841] | 146 nM | 97% | EC50 (P. falciparum 3D7 [2]; source GNF (GNF-Pf id)): 554 nM; EC50 (P. falciparum 3D7 [2]; source GSK (TCMDC id)): 873 nM |
| c1ccc2c(NCCCCCCNc3c4c(nc5ccccc35)CCCC4)c3c(nc2c1)CCCC3 [MMV019555] | 376 nM | 100% | EC50 (P. falciparum 3D7 [2]; source GSK (TCMDC ids)): 196 nM |
| COc1cc(SC)ccc1C(=O)N1CCCC(C)C1 (stereo not shown) [MMV056726] | 4000 nM |  | inhibition of growth at 2 µM (P. falciparum 3D7 [1]): 45%; EC50 (P. falciparum 3D7 [2]; [3]): 9810 nM |
| O=C(Nc1ccc(Cl)cc1C(=O)Nc1ccncc1)c1ccc(Cl)cc1Cl [MMV666057] |  | 94% | EC50 (P. falciparum 3D7 [2]; source GSK): 611 nM |
| CCC(O)c1ccc(Br)cc1NC(=O)c1cccc(Cl)c1 (stereo not shown) [MMV020654] | 640 nM | 97% | EC50 (P. falciparum 3D7 [2]; [3]): 1020 nM |
| Oc1c2c(nc3cc(-c4ccccc4)nn13)CCCC2 [MMV008270] |  | 77% | EC50 (P. falciparum 3D7 [2]; [3]): 1930 nM |
| CCc1ccc(CNCC(O)c2ccccc2)cc1 (stereo not shown) [MMV665812] |  | 97% | EC50 (P. falciparum 3D7 [2]; source StJude): 2170 nM |
| COc1ccc(CCNC(=O)c2cc(S(=O)(=O)N3CC(C)CC(C)C3)ccc2Sc2ccc(F)cc2)cc1OC (stereo not shown) [MMV007557] | 632 nM | 97% | EC50 (P. falciparum 3D7 [2]; source GNF (GNF-Pf ids)): 1050 nM |
| CN(C)c1ccc(N=Cc2ccc(N3CCOCC3)cc2)cc1 [MMV073843] |  | 96% | EC50 (P. falciparum 3D7 [2]; [4]): 175 nM |
| Cc1ccc(Nc2nc(-c3ccccn3)cs2)cc1 [MMV007907] | 350 nM | 79% | EC50 (P. falciparum 3D7 [2]; source GNF): 407 nM |
| CC1CCN(Cc2ccc(NC(=O)c3cc4ccc5cccnc5c4[nH]3)cc2)CC1 [MMV020549] | 274 nM | 97% | EC50 (P. falciparum 3D7 [2]; source GSK (TCMDC id)): 779 nM |
| COc1cc(OC)cc(N2C(=O)N(Cc3ccc(C(C)(C)C)cc3)c3ccccc3S2(=O)=O)c1 [MMV008173] | 1430 nM | 97% | EC50 (P. falciparum 3D7 [2]; source GNF (GNF-Pf ids)): 3750 nM |
| Cc1cc(N(C)C)nc(Nc2ccc(NC(=O)Nc3ccccc3)cc2)n1 [MMV020243] | 1150 nM |  | EC50 (P. falciparum 3D7 [2]; [4]): 134 nM |
| CC(C)(C)CC(C)(C)NCC(O)COc1ccc2c(c1)CCC2 (stereo not shown) [MMV665817] |  | 78% | EC50 (P. falciparum 3D7 [2]; source StJude): 4420 nM |
| Oc1c2c(nc3ccccc13)CCCC2 [MMV665843] |  | 82% | EC50 (P. falciparum 3D7 [2]; [3]): 628 nM |
| Cn1c(C(=O)c2cccc3ccccc23)nc2ccccc21 [MMV665824] |  | 89% | EC50 (P. falciparum 3D7 [2]; source GNF): 6.92 nM |

| SMILES | EC50 (P. falciparum 3D7 [1]) | inhibition of growth at 5 µM (P. falciparum 3D7 [1]) | other results |
| --- | --- | --- | --- |
| CCOc1cc(Br)c(C(C)NC(=O)c2cccc(OC)c2)cc1OCC (stereo not shown) [MMV665796] | 1430 nM | 96% | EC50 (P. falciparum 3D7 [2]; source GSK): 168 nM |
| CCOc1cccc2sc(N(Cc3cccnc3)C(=O)C3CCCCC3)nc12 [MMV001230] |  | 94% | EC50 (P. falciparum 3D7 [2]; source StJude): 3040 nM |
| OC1CCCCC1C1(NC(=S)Nc2ccccc2)CCCCC1 (stereo not shown) [MMV665980] |  | 59% | EC50 (P. falciparum 3D7 [2]; source GNF (GNF-Pf ids)): 211 nM |
| CCOC(=O)c1c(C)n(-c2ccc(Cl)cc2)c2ccc(OC(=O)C=Cc3ccccc3)cc12 [MMV666600] | 216 nM | 97% | EC50 (P. falciparum 3D7 [2]; source GSK (TCMDC id)): 698 nM |
| CN(C)CCCNc1c2ccccc2nc2ccccc12 [MMV000448] | 235 nM | 95% | EC50 (P. falciparum 3D7 [2]; source GNF (GNF-Pf id)): 32.7 nM; EC50 (P. falciparum 3D7 [2]; source GSK (TCMDC id)): 1040 nM; EC50 (P. falciparum 3D7 [2]; source StJude (SJ id)): 531 nM |
| CCN(CC)CCNc1ccnc2cc(Cl)ccc12 [MMV006087] | 58.1 nM |  | EC50 (P. falciparum 3D7 [2]; source GNF (GNF-Pf id)): 7.16 nM |
| O=C(Nc1cccc(C(F)(F)F)c1)c1cc(Cl)ccc1O [MMV665807] |  | 93% | EC50 (P. falciparum 3D7 [2]; source StJude): 973 nM |
| O=C1CC(O)(C(F)(F)C(F)(F)F)Oc2ccccc21 (stereo not shown) [MMV000972] |  | 95% | EC50 (P. falciparum 3D7 [2]; [3]): 2570 nM |
| CCCCN(CCCC)S(=O)(=O)c1ccc(NC(=O)c2ccco2)cc1 [MMV007881] |  | 78% | EC50 (P. falciparum 3D7 [2]; [3]): 1420 nM |
| CCCCc1c(C)nc2c(OC)cccc2c1O [MMV006820] | 4000 nM |  | inhibition of growth at 2 µM (P. falciparum 3D7 [1]): 92%; EC50 (P. falciparum 3D7 [2]; [3]): 1690 nM |
| Cc1cc(C)c2nc(N3CCC(C(=O)NCCCN4CCC(N5CCCCC5)CC4)CC3)sc2c1 [MMV019780] | 697 nM | 98% | EC50 (P. falciparum 3D7 [2]; source GSK): 838 nM |
| CCN(CC)c1cc(C)c2cc(NC(=O)c3cccc(OC)c3)ccc2n1 [MMV000498] |  | 97% | EC50 (P. falciparum 3D7 [2]; source StJude): 4770 nM |
| CCN(Cc1ccccc1)C1CCN(Cc2cc(Br)ccc2O)CC1 [MMV019127] | 625 nM | 97% | EC50 (P. falciparum 3D7 [2]; [3]): 823 nM |
| CCCn1c(=N)c(C(=O)NC2CCCCC2)cc2c(=O)n3cccc(C)c3nc21 [MMV008829] | 1110 nM | 96% | EC50 (P. falciparum 3D7 [2]; source GNF): 460 nM |
| COc1ccc(-c2nonc2NC(=O)c2cccc(C)c2)cc1OC [MMV665890] |  | 95% | EC50 (P. falciparum 3D7 [2]; [3]): 806 nM |

More lines, main results first:

| EC50 (P. falciparum 3D7 [1]) | SMILES | inhibition of growth at 5 µM (P. falciparum 3D7 [1]) | other results |
| --- | --- | --- | --- |
| 513 nM | COc1ccc(C(=O)NC(c2ccc(Cl)cc2Cl)c2cc(Cl)c3cccnc3c2O)cc1 (stereo not shown) [MMV666054] | 96% | EC50 (P. falciparum 3D7 [2]; source GSK (TCMDC ids)): 499 nM |
| 871 nM | CC(=O)Nc1nnc(SCc2c(C)cc(C(C)(C)C)cc2C)s1 [MMV020700] | 96% | EC50 (P. falciparum 3D7 [2]; [3]): 704 nM |
| 196 nM | CCCN(CCC)CC(O)COc1ccccc1C(=O)Nc1ccccc1 (stereo not shown) [MMV006455] | 98% | EC50 (P. falciparum 3D7 [2]; source GNF (GNF-Pf id)): 365 nM; EC50 (P. falciparum 3D7 [2]; source GSK (TCMDC id)): 799 nM |
| 934 nM | COc1ccc(C2NCCc3c2[nH]c2ccccc32)cc1CN1CCN(c2ccc(F)cc2)CC1 (stereo not shown) [MMV019690] | 97% | EC50 (P. falciparum 3D7 [2]; source GSK (TCMDC ids)): 776 nM |
| 512 nM | CCOc1c(Br)cc(C2C(C(=O)OC)=CN(C)C=C2C(=O)OC)cc1OC [MMV006764] | 96% | EC50 (P. falciparum 3D7 [2]; source GNF (GNF-Pf ids)): 292 nM |
| 969 nM | COc1ccc2nc(C)cc(Nc3cccc(O)c3)c2c1 [MMV008212] | 98% | EC50 (P. falciparum 3D7 [2]; [3]): 228 nM |
| 876 nM | CN(C)CCCNCc1ccc(-c2ccc(F)c(Cl)c2)o1 [MMV020505] | 96% | EC50 (P. falciparum 3D7 [2]; source GSK (TCMDC ids)): 802 nM |
| 947 nM | Cc1ccc(Cn2c(N3CCC(C(=O)NCc4cccs4)CC3)nc3ccccc32)cc1 [MMV007564] | 73% | EC50 (P. falciparum 3D7 [2]; source GNF): 529 nM; EC50 (P. falciparum 3D7 [2]; source GSK): 748 nM |
| 1190 nM | CCOC(=O)c1cnc2ccc(Cl)cc2c1NCCCN(C)C [MMV006882] | 98% | EC50 (P. falciparum 3D7 [2]; source GNF (GNF-Pf ids)): 826 nM |
| 237 nM | CCCCCC(=O)N1c2ccccc2N=C2CC(c3ccc(OC)c(OC)c3)CC(O)=C2C1c1ccc(C(F)(F)F)cc1 (stereo not shown) [MMV085583] | 100% | EC50 (P. falciparum 3D7 [2]; source GNF (GNF-Pf id)): 107 nM |
| 560 nM | CCOc1ccc(C=Cc2nc(=O)c3ccccc3o2)cc1 [MMV665940] | 95% | EC50 (P. falciparum 3D7 [2]; source StJude): 188 nM |
| 1260 nM | CC(C)c1ccc(CNCC(O)c2ccccc2)cc1 (stereo not shown) [MMV001049] | 96% | EC50 (P. falciparum 3D7 [2]; [3]): 1350 nM |
| 1000 nM | CC1CC2=C(CC1CNCCCN(C)C)C(C)(C)CCC2 (stereo not shown) [MMV665830] | 98% | EC50 (P. falciparum 3D7 [2]; [4]): 250 nM |
| 590 nM | OCCNc1nc(Nc2ccc(Cl)c(Cl)c2)nc2ccccc12 [MMV001041] |  | inhibition of growth at 2 µM (P. falciparum 3D7 [1]): 94%; EC50 (P. falciparum 3D7 [2]; source GNF): 140 nM; EC50 (P. falciparum 3D7 [2]; source StJude): 15000 nM |
| 467 nM | COc1ccc(Nc2cc(C)nc(NCc3ccccc3)n2)cc1 [MMV006825] |  | EC50 (P. falciparum 3D7 [2]; [4]): 151 nM |
| 378 nM | CCc1c(C)c(=N)c2ccccc2n1C [MMV006278] | 76% | EC50 (P. falciparum 3D7 [2]; source GNF (GNF-Pf id)): 701 nM |
